Test results reported in ChEMBL document CHEMBL3044985, “Novel antitubercular diallyl/dibenzylthiosemicarbazones endowed with high activity toward multi-drug-resistant tuberculosis” (Med Chem Res, 2012).
In brackets after ≈: the same amount, converted by molar mass.

Columns and labels:
[1] = system: Mycobacterium tuberculosis; assay: Antitubercular activity against multidrug-resistant Mycobacterium tuberculosis by NCCLS agar dilution method; type: functional
[2] = Selectivity index, ratio of CC50 for african green monkey Vero cells to MIC for multidrug-resistant Mycobacterium tuberculosis; type: toxicity, cell-based; conditions: read-out: Selectivity Index
[3] = system: Mycobacterium tuberculosis; assay: Ratio of ethambutol MIC to compound MIC for multidrug-resistant Mycobacterium tuberculosis; type: functional
[4] = system: Mycobacterium tuberculosis; assay: Ratio of ofloxacin MIC to compound MIC for multidrug-resistant Mycobacterium tuberculosis; type: functional
[5] = system: Mycobacterium tuberculosis; assay: Ratio of rifampicin MIC to compound MIC for multidrug-resistant Mycobacterium tuberculosis; type: functional
[6] = system: Mycobacterium tuberculosis; assay: Ratio of isoniazid MIC to compound MIC for multidrug-resistant Mycobacterium tuberculosis; type: functional

Compound | MIC [1] | other results
C=CCN(CC=C)C(=S)N/N=C(/C)c1ccc([N+](=O)[O-])cc1 | 9.83 µM (≈ 3.13 µg/mL) | –
NNC(=O)c1ccncc1 [ISONIAZID] | 45.6 µM (≈ 6.25 µg/mL) | –
C=CCN(CC=C)C(=S)N/N=C(/C)c1ccc(F)cc1 | 5.35 µM (≈ 1.56 µg/mL) | –
S=C(N/N=C\c1ccc(Cl)cc1)N(Cc1ccccc1)Cc1ccccc1 | 1.98 µM (≈ 0.78 µg/mL) | –
O=[N+]([O-])c1ccc(/C=N\NC(=S)N(Cc2ccccc2)Cc2ccccc2)o1 | 0.12 µM (≈ 0.0473 µg/mL) | selectivity ratio [2]: 1320; Ratio [3]: 314; Ratio [4]: 288; Ratio [5]: 31; Ratio [6]: 379
C=CCN(CC=C)C(=S)N/N=C\c1ccc([N+](=O)[O-])o1 | 0.67 µM (≈ 0.197 µg/mL) | –
S=C(N/N=C\c1ccccc1)N(Cc1ccccc1)Cc1ccccc1 | 8.71 µM (≈ 3.13 µg/mL) | –
C/C(=N/NC(=S)N(Cc1ccccc1)Cc1ccccc1)c1ccc(F)cc1 | 3.98 µM (≈ 1.56 µg/mL) | –
C=CCN(CC=C)C(=S)N/N=C\c1ccc(Cl)cc1 | 2.65 µM (≈ 0.779 µg/mL) | –
O=[N+]([O-])c1ccccc1/C=N\NC(=S)N(Cc1ccccc1)Cc1ccccc1 | 0.98 µM (≈ 0.396 µg/mL) | –
C=CCN(CC=C)C(=S)N/N=C\c1ccccc1[N+](=O)[O-] | 2.56 µM (≈ 0.779 µg/mL) | –
C/C(=N/NC(=S)N(Cc1ccccc1)Cc1ccccc1)c1ccc(O)cc1 | 8.03 µM (≈ 3.13 µg/mL) | –
C/C(=N/NC(=S)N(Cc1ccccc1)Cc1ccccc1)c1ccccc1 | 4.17 µM (≈ 1.56 µg/mL) | –
C=CCN(CC=C)C(=S)NN=C(c1ccccc1)c1ccccc1 | 2.32 µM (≈ 0.778 µg/mL) | –
C=CCN(CC=C)C(=S)N/N=C(/C)c1ccccc1 | 11.4 µM (≈ 3.13 µg/mL) | –
C=CCN(CC=C)C(=S)N/N=C\c1ccccc1C | 5.7 µM (≈ 1.56 µg/mL) | –
C/C(=N/NC(=S)N(Cc1ccccc1)Cc1ccccc1)c1ccc(N)cc1 | 8.04 µM (≈ 3.12 µg/mL) | –
C=CCN(CC=C)C(=S)N/N=C\c1ccc([N+](=O)[O-])cc1 | 1.31 µM (≈ 0.399 µg/mL) | –
Cc1ccccc1/C=N\NC(=S)N(Cc1ccccc1)Cc1ccccc1 | 4.71 µM (≈ 1.76 µg/mL) | –
Oc1ccccc1/C=N\NC(=S)N(Cc1ccccc1)Cc1ccccc1 | 4.16 µM (≈ 1.56 µg/mL) | –
O=[N+]([O-])c1ccc(/C=N\NC(=S)N(Cc2ccccc2)Cc2ccccc2)cc1 | 0.98 µM (≈ 0.396 µg/mL) | –
C=CCN(CC=C)C(=S)N/N=C(/C)c1ccccc1O | 10.8 µM (≈ 3.13 µg/mL) | –
C/C(=N/NC(=S)N(Cc1ccccc1)Cc1ccccc1)c1ccc([N+](=O)[O-])cc1 | 1.86 µM (≈ 0.778 µg/mL) | –
CC[C@@H](CO)NCCN[C@@H](CC)CO [ETHAMBUTOL] | 37.7 µM (≈ 7.7 µg/mL) | –
C=CCN(CC=C)C(=S)N/N=C(/C)c1ccc(O)cc1 | 10.8 µM (≈ 3.13 µg/mL) | –
S=C(NN=C(c1ccccc1)c1ccccc1)N(Cc1ccccc1)Cc1ccccc1 | 1.79 µM (≈ 0.78 µg/mL) | –
C/C(=N/NC(=S)N(Cc1ccccc1)Cc1ccccc1)c1ccccc1O | 8.03 µM (≈ 3.13 µg/mL) | –
CO[C@H]1/C=C/O[C@@]2(C)Oc3c(C)c(O)c4c(O)c(c(/C=N/N5CCN(C)CC5)c(O)c4c3C2=O)NC(=O)/C(C)=C\C=C\[C@H](C)[C@H](O)[C@@H](C)[C@@H](O)[C@@H](C)[C@H](OC(C)=O)[C@@H]1C [RIFAMPIN] | 3.79 µM (≈ 3.12 µg/mL) | –
